Experiment [1] relates to E. coli KL-16 (GSC strain 4245). Briefly: In vitro antibacterial activity (MIC assay), broth microdilution. Format: cell-based. The conditions noted are these: Escherichia coli. A digest of the protocol:
(§1)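 Broth microdilution per NCCLS M7-A5: 11-point 2-fold compound dilutions from DMSO stocks, inoculum about 5×10^5 CFU/mL, incubation 35° C for 16–24 h. MIC scored visually against no-compound growth controls, in μg/mL.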

Experiment [2] has as its system S. aureus ATCC13709. Described as above. Particulars: Staphylococcus aureus, ATCC13709; read-out: S. aureus ATCC13709 MIC. Format: cell-based. The essentials: as §1
The subject of experiment [3] is S. pneumoniae ATCC49619. Described as above. The class given is cell-based. Particulars: Streptococcus pneumoniae, ATCC49619; read-out: S. pneumoniae ATCC49619 MIC. The essentials:
as §1

Experiment [4] deals with T1, E. coli DNA gyrase (Escherichia coli, UniProt P0AES4+P0AES6).
T1 construct: purchased John Innes Enterprises Ltd. (John Innes Centre, UK)
The experiment is described as follows: DNA gyrase inhibition assay (supercoiling). The class given is biochemical. Particulars: E. coli DNA gyrase supercoiling, visual inspection of gels; read-out: DNA Gyrase IC50 (converted). Here is the method:
Inhibition of the supercoiling activity of E. coli DNA gyrase was determined using enzymes, buffers and substrates received from John Innes Enterprises Ltd. (John Innes Centre, UK). The reactions were performed according to the manufacturer's directions, with the following modifications.
DNA supercoiling reactions were carried out in a total reaction volume of 20 μL containing 250 ng of relaxed pBR322, 35 mM Tris-HCl (pH 7.5), 24 mM KCl, 4 mM MgCl2, 2 mM dithiothreitol, 1.8 mM spermidine, 1 mM ATP, 6.5% glycerol and 100 μg/mL albumin. Compounds diluted in 10% DMSO were added to the reaction mixture to reach a final concentration of 0.5% DMSO. Enzyme was diluted to […] in a solution of 50 mM Tris-HCl (pH 7.5), 100 mM KCl, 2 mM dithiothreitol, 1 mM EDTA, and 50% glycerol. Diluted enzyme (0.2 unit) was added to each reaction.
The reactions were incubated at 37° C. for 30 min. The reactions were then cooled to 0° C., followed by addition of 3 μL of 40% glycerol, 100 mM Tris-HCl (pH 7.5), 50 mM EDTA, 0.5% SDS and 0.1% bromophenol blue. Samples were separated on 1.0% agarose gels. Gels were stained with Ethidium bromide and photographed with a Stratagene Eagle Eye II.

This is an account of results in US8242275B2, “Bicyclic pyrazole compounds as antibacterial agents” (Janssen Pharmaceutica NV, priority 2005, dated 2012).

Values after ≈ are worked out from the molar mass of the structure shown. Some results are limits rather than exact numbers.

In general, MIC refers to the lowest concentration that inhibits growth of the organism. The term IC50 denotes the concentration that inhibits the measured activity by half.

T1 sequence (P0AES4 whole entry, one chain of several): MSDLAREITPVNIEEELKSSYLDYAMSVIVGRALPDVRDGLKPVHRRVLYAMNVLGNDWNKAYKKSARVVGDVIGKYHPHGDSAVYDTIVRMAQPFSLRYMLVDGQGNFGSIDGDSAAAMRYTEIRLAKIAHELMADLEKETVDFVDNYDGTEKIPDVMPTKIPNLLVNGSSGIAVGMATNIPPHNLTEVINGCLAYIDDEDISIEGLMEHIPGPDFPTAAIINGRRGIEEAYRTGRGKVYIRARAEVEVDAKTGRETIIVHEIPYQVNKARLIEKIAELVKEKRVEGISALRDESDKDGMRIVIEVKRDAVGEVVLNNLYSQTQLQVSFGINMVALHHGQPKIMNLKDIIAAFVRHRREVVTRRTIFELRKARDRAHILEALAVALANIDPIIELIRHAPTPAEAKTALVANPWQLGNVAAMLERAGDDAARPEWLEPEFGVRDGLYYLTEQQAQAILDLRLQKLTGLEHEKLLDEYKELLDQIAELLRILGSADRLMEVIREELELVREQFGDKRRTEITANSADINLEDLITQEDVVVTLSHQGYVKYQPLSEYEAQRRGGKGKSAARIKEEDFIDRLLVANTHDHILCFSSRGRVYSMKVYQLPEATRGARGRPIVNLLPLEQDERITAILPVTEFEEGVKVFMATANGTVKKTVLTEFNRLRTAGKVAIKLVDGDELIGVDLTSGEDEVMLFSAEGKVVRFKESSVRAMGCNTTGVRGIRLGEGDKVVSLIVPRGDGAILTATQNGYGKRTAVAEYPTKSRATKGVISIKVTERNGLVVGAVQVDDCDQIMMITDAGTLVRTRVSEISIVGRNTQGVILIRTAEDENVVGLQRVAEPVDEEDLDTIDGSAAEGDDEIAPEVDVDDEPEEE

On to `COc1ccc2nccc(-n3cc4c(n3)CCC(NCc3ccc(N(C)C)c(C#N)c3F)C4)c2n1` (centres unmarked) [Example 35, 6-Dimethylamino-2-fluoro-3-{[2-(6-methoxy-[1,5]naphthyridin-4-yl)-4,5,6,7-tetrahydro-2H-indazol-5-ylamino]-methyl}-benzonitrile], for which the figures for the MIC in experiment [1], in experiment [2] and in experiment [3] were above 128 µg/mL, below 0.125 µg/mL and 1 µg/mL (≈ 2.12 µM), respectively. Further, in experiment [4], the IC50 is 4.24 µM.

For `COc1ccc2nccc(-n3cc4c(n3)CCC(NCc3cc5c(cc3F)OCCO5)C4)c2n1` (centres unmarked) [Example 43, (7-Fluoro-2,3-dihydro-benzo[1,4]dioxin-6-ylmethyl)-[2-(6-methoxy-[1,5]naphthyridin-4-yl)-4,5,6,7-tetrahydro-2H-indazol-5-yl]-amine], the MIC was 16 µg/mL (≈ 34.7 µM) in experiment [1], above 0.125 µg/mL in experiment [2] and 1 µg/mL (≈ 2.17 µM) in experiment [3]. Besides, the IC50 in experiment [4] was 1.08 µM.

`COc1ccc2nccc(-n3cc4c(n3)CCC(NCCCc3ccccc3)C4)c2n1` (centres unmarked) [Example 45, [2-(6-Methoxy-[1,5]naphthyridin-4-yl)-4,5,6,7-tetrahydro-2H-indazol-5-yl]-(3-phenyl-propyl)-amine]: the MIC in experiment [1] is 128 µg/mL (≈ 310 µM); in experiment [2], 0.25 µg/mL (≈ 0.605 µM); in experiment [3], below 0.125 µg/mL. In addition, the IC50 in experiment [4] is 1.93 µM.

In the case of `COc1ccc2nccc(-n3cc4c(n3)CCC(NC/C=C/c3cccnc3)C4)c2n1` (centres unmarked) [Example 47, [2-(6-Methoxy-[1,5]naphthyridin-4-yl)-4,5,6,7-tetrahydro-2H-indazol-5-yl]-(3-pyridin-3-yl-allyl)-amine], the MIC in experiment [1] was 128 µg/mL (≈ 310 µM); in experiment [2] it was 1 µg/mL (≈ 2.42 µM); in experiment [3], 4 µg/mL (≈ 9.7 µM). For the same molecule, the half-inhibitory concentration (IC50) in experiment [4] was 4.85 µM.

For `COc1ccc2nccc(-n3cc4c(n3)CCC(NCCCc3ccc(Cl)c(Cl)c3)C4)c2n1` (centres unmarked) [Example 48, [3-(3,4-Dichloro-phenyl)-propyl]-[2-(6-methoxy-[1,5]naphthyridin-4-yl)-4,5,6,7-tetrahydro-2H-indazol-5-yl]-amine], the minimum inhibitory concentration (MIC) in experiment [1] stood at 32 µg/mL (≈ 66.3 µM); in experiment [2], 0.25 µg/mL (≈ 0.518 µM); in experiment [3], 1 µg/mL (≈ 2.07 µM). Moreover, the half-maximal inhibitory concentration (IC50) in experiment [4] is above 66.3 µM.

In the case of `COc1ccc2nccc(-n3cc4c(n3)CCC(NCCCc3ccc(C)cc3)C4)c2n1` (centres unmarked) [Example 49, [2-(6-Methoxy-[1,5]naphthyridin-4-yl)-4,5,6,7-tetrahydro-2H-indazol-5-yl]-(3-p-tolyl-propyl)-amine], the values for the MIC in experiment [1], in experiment [2] and in experiment [3] were 128 µg/mL (≈ 299 µM), below 0.125 µg/mL and 0.5 µg/mL (≈ 1.17 µM), respectively. The IC50 in experiment [4] is 7.02 µM.

Take `COc1ccc2nccc(-n3cc4c(n3)CCC(NC/C=C/c3ccc(F)cc3)C4)c2c1` (centres unmarked) [Example 57, [3-(4-Fluoro-phenyl)-allyl]-[2-(6-methoxy-quinolin-4-yl)-4,5,6,7-tetrahydro-2H-indazol-5-yl]-amine]: the MIC worked out at 64 µg/mL (≈ 149 µM) in experiment [1], 1 µg/mL (≈ 2.33 µM) in experiment [2] and 2 µg/mL (≈ 4.67 µM) in experiment [3]. The IC50 in experiment [4] is 4.67 µM.

`COc1ccc2nccc(-n3cc4c(n3)CCC(NCC(=O)Nc3ccc(C)cc3)C4)c2n1` (centres unmarked) [Example 60, 2-[2-(6-Methoxy-[1,5]naphthyridin-4-yl)-4,5,6,7-tetrahydro-2H-indazol-5-ylamino]-N-p-tolyl-acetamide]: the MIC in experiment [1] was above 128 µg/mL; in experiment [2], 1 µg/mL (≈ 2.26 µM); in experiment [3] it was 8 µg/mL (≈ 18.1 µM). The IC50 in experiment [4] was above 36.2 µM.

With `COc1ccc2nccc(-n3cc4c(n3)CCC(NCC(=O)Nc3cc(F)cc(F)c3)C4)c2c1` (centres unmarked) [Example 61, N-(3,5-Difluoro-phenyl)-2-[2-(6-methoxy-quinolin-4-yl)-4,5,6,7-tetrahydro-2H-indazol-5-ylamino]-acetamide], the results for the MIC in experiment [1], in experiment [2] and in experiment [3] were 16 µg/mL (≈ 34.5 µM), 0.5 µg/mL (≈ 1.08 µM) and 8 µg/mL (≈ 17.3 µM), respectively. In addition, in experiment [4], the IC50 was 4.32 µM.

As for `COc1ccc2nccc(-n3cc4c(n3)CCC(NCCOc3ccccc3)C4)c2n1` (centres unmarked) [Example 65, [2-(6-Methoxy-[1,5]naphthyridin-4-yl)-4,5,6,7-tetrahydro-2H-indazol-5-yl]-(2-phenoxy-ethyl)-amine], the figures for the minimal inhibitory concentration (MIC) in experiment [1], in experiment [2] and in experiment [3] were above 128 µg/mL, 0.5 µg/mL (≈ 1.2 µM) and 1 µg/mL (≈ 2.41 µM), respectively. Besides, the IC50 in experiment [4] was 2.41 µM.

`COc1ccc2nccc(-n3cc4c(n3)CCC(N(Cc3ccccc3)Cc3ccc5c(c3)NC(=O)CS5)C4)c2n1` (centres unmarked) [Example 66, 6-({Benzyl-[2-(6-methoxy-[1,5]naphthyridin-4-yl)-4,5,6,7-tetrahydro-2H-indazol-5-yl]amino}-methyl)-4H-benzo[1,4]thiazin-3-one]: the MIC in experiment [1] is above 128 µg/mL; in experiment [2], 8 µg/mL (≈ 14.2 µM); in experiment [3], above 128 µg/mL. Also, in experiment [4], the concentration for half-maximal inhibition (IC50) is 3.55 µM.

As for `COc1ccc2nccc(-n3cc4c(n3)CCC(N(CC(=O)OC(C)(C)C)Cc3ccc5c(c3)NC(=O)CS5)C4)c2n1` (centres unmarked) [Example 67, [[2-(6-Methoxy-[1,5]naphthyridin-4-yl)-4,5,6,7-tetrahydro-2H-indazol-5-yl]-(3-oxo-3,4-dihydro-2H-benzo[1,4]thiazin-6-ylmethyl)-amino]-acetic acid tert-butyl ester], the figures for the minimum inhibitory concentration (MIC) in experiment [1], in experiment [2] and in experiment [3] were above 128 µg/mL, 4 µg/mL (≈ 6.82 µM) and 64 µg/mL (≈ 109 µM), respectively. Further, the half-maximal inhibitory concentration (IC50) in experiment [4] is above 13.6 µM.

As to `COc1ccc2nccc(-n3cc4c(n3)CCC(N(CC(=O)O)Cc3ccc5c(c3)NC(=O)CS5)C4)c2n1` (centres unmarked) [Example 68, [[2-(6-Methoxy-[1,5]naphthyridin-4-yl)-4,5,6,7-tetrahydro-2H-indazol-5-yl]-(3-oxo-3,4-dihydro-2H-benzo[1,4]thiazin-6-ylmethyl)-amino]-acetic acid], the MIC in experiment [1] is above 128 µg/mL; in experiment [2], 8 µg/mL (≈ 15.1 µM); in experiment [3] it was 8 µg/mL (≈ 15.1 µM). The IC50 in experiment [4] is 1.88 µM.

For the molecule `COc1ccc2nccc(-n3cc4c(n3)CCC(NC(=O)c3ccc5c(c3)N(C)C(=O)CS5)C4)c2n1` (centres unmarked) [Example 69, 4-Methyl-3-oxo-3,4-dihydro-2H-benzo[1,4]thiazine-6-carboxylic acid [2-(6-methoxy-[1,5]naphthyridin-4-yl)-4,5,6,7-tetrahydro-2H-indazol-5-yl]-amide], the MIC is above 128 µg/mL in experiment [1], 4 µg/mL (≈ 7.99 µM) in experiment [2] and 64 µg/mL (≈ 128 µM) in experiment [3]. Also, the IC50 in experiment [4] was above 7.99 µM.

For `COc1ccc2nccc(-n3cc4c(n3)CCC(NC(=O)c3ccc(Br)s3)C4)c2c1` (centres unmarked) [Example 72, 5-Bromo-thiophene-2-carboxylic acid [2-(6-methoxy-quinolin-4-yl)-4,5,6,7-tetrahydro-2H-indazol-5-yl]-amide], the figures for the MIC in experiment [1], in experiment [2] and in experiment [3] were above 128 µg/mL, 2 µg/mL (≈ 4.14 µM) and above 128 µg/mL, respectively. Further, the 50% inhibitory concentration (IC50) in experiment [4] is above 33.1 µM.

On to `COc1ccc2nccc(-n3cc4c(n3)CCC(NC(=O)c3ccc(C(C)=O)s3)C4)c2c1` (centres unmarked) [Example 73, 5-Acetyl-thiophene-2-carboxylic acid [2-(6-methoxy-quinolin-4-yl)-4,5,6,7-tetrahydro-2H-indazol-5-yl]-amide], for which the minimal inhibitory concentration (MIC) in experiment [1] was above 128 µg/mL; in experiment [2], 4 µg/mL (≈ 8.96 µM); in experiment [3] it was 64 µg/mL (≈ 143 µM). In addition, in experiment [4], the IC50 is above 35.8 µM.

As for `COc1ccc2nccc(-n3cc4c(n3)CCC(NC(=O)c3cc5cc(F)c(F)cc5[nH]3)C4)c2c1` (centres unmarked) [Example 74, 5,6-Difluoro-1H-indole-2-carboxylic acid [2-(6-methoxy-quinolin-4-yl)-4,5,6,7-tetrahydro-2H-indazol-5-yl]-amide], the values for the MIC in experiment [1], in experiment [2] and in experiment [3] were above 128 µg/mL, 1 µg/mL (≈ 2.11 µM) and 8 µg/mL (≈ 16.9 µM), respectively. In addition, the IC50 in experiment [4] is 4.22 µM.
